Where two headings read alike, the source gives them in different places.
Tests used:
[1] = Study 1 (NCT03836599) safety: adverse events, laboratory, vital signs, ECG; type: in vivo, human; details: Study 1, up to 24 mg verinurad + 300 mg allopurinol
Excerpt: (§1) Cohort 1 was randomized, double‐blind, and placebo‐controlled and consisted of 12 healthy Asian participants, of whom <50% were Chinese. Cohort 2 was open‐label, consisting of 9 healthy Chinese participants.
(§2) Analysis of safety was based on adverse events (AEs), laboratory assessments (including hematology, clinical chemistry, urinalysis, and coagulation), vital signs (systolic and diastolic blood pressure, and pulse rate), electrocardiogram (ECG), and physical examination. AEs were coded using the Medical Dictionary for Regulatory Activities. In Study 1, a treatment‐emergent AE was defined as an AE with onset (start date/time) after the first dose of study drug in the run‐in period (day –7). In Study 2, AEs were recorded from the time the participant signed the informed consent through to the follow‐up visit. ECGs were obtained after the participant rested in the supine position. Digital ECG analysis in Study 1 was performed at the AstraZeneca ECG Center.
(§3) Safety was assessed in the safety analysis set of each study, comprising all participants who received ≥1 dose of study drug. Continuous variables are summarized using descriptive statistics, and categorical variables are summarized as frequency and proportion.

[2] = Study 2 (NCT02608710) safety: adverse events, laboratory, vital signs, ECG; type: in vivo, human
Procedure: (§4) Study 2 was a Phase 1, randomized, open‐label study comprising of three parts. Parts 1 and 2 assessed the pharmacokinetics and pharmacodynamics of single and multiple doses of verinurad, respectively (Figure 1). Part 3 assessed the effect of food on the pharmacokinetics and pharmacodynamics of verinurad and is not reported further herein. In the single‐dose assessment, […] were randomized 1:1:1:1:1:1 into 1 of 6 treatment sequences with a single dose of 4.5, 6, or 12 mg verinurad, administered on days 1, 5, and 9 (Figure 1). In the multiple‐dose assessment, 8 participants received 12 mg verinurad QD on days 1 to 7.
as §2, §3

[3] = Study 1 plasma pharmacokinetics of verinurad, allopurinol and oxypurinol; type: in vivo, human; details: for Tmax: median (range); for Cmax / AUC: geometric mean (gCV%)
Procedure: as §1
(§5) In both studies, participants received verinurad capsules with an extended‐release profile. On the days of pharmacokinetic sampling, treatment was given in fasting state.
(§6) Verinurad plasma samples were analyzed using similar methodologies as described by Shen et al.[13] with lower and upper limits of quantification of 0.100 ng/mL and 40.0 ng/mL, respectively.

[4] = Study 2 plasma pharmacokinetics of verinurad; type: in vivo, human; details: healthy non-Asian participants; for Tmax: median (range); for half-life: read-out: t½λz (converted)
Procedure: as §4, §5
as §6, with “respectively. The ability to dilute overrange samples was also confirmed. […].” for “respectively.”
(§7) Pharmacokinetics and pharmacodynamics were assessed in all participants who received ≥1 dose of study drug and had ≥1 corresponding assessment.

[5] = test system: serum uric acid (sUA) and urinary uric acid (uUA); experiment: Study 2 pharmacodynamics: serum and urinary uric acid; type: in vivo, human; details: healthy non-Asian participants
Procedure: as §4
Key pharmacodynamic parameters included time‐matched percentage change from baseline (day –1) at each timepoint in sUA concentration, maximum observed percentage change from baseline (time‐matched, day –1) in sUA concentration (Emax,CB) and time to Emax,CB, amount of UA recovered in urine (Aeur), and fractional excretion of UA (FEUA).
as §7

[6] = set-up: method as in PMID 29949102; details: cited from earlier work
[7] = set-up: method as in PMID 29950814; details: cited from earlier work
[8] = set-up: method as in PMID 30334639; details: patients with gout, 1 Japanese study and 1 Western study; cited from earlier work
[9] = multiple-dose assessment, 12 mg verinurad QD (n = 8)
[10] = single-dose assessment, 4.5 mg verinurad (n = 16)
[11] = single-dose assessment, 6 mg verinurad (n = 16)
[12] = single-dose assessment, 12 mg verinurad (n = 16)
[13] = healthy Asian participants, 24 mg verinurad + 300 mg allopurinol QD, Day 7
[14] = healthy Chinese participants, 12 mg verinurad + 300 mg allopurinol day 1 and QD days 3-9, Day 9, arithmetic mean (SD)
[15] = healthy Chinese participants, 12 mg verinurad + 300 mg allopurinol, Day 1, arithmetic mean (SD)
[16] = multiple-dose assessment 12 mg verinurad QD, Day 7, geometric mean (gCV%)
[17] = single dose 6 mg verinurad, geometric mean (gCV%)
[18] = single dose 12 mg verinurad, geometric mean (gCV%)
[19] = 12 mg verinurad QD, day 1, 3 to 6 h post-dose
[20] = 12 mg verinurad QD, day 7, 3 to 6 h post-dose
[21] = single dose 4.5 mg verinurad, 3 to 6 h post-dose
[22] = single dose 6 mg verinurad, 3 to 6 h post-dose
[23] = single dose 12 mg verinurad, 3 to 6 h post-dose
[24] = single dose 15 mg verinurad, moderate renal impairment
[25] = single dose 15 mg verinurad, severe renal impairment
[26] = single dose, mild renal impairment
[27] = healthy Japanese male participants, day 6 after QD dosing with 15 mg verinurad modified-release formulation

SMILES: CC(C)(Sc1ccncc1-c1ccc(C#N)c2ccccc12)C(=O)O [verinurad]
- tolerability [1]: well tolerated
- diarrhea, participants ([2]; human, in vivo): 2
- findings in laboratory parameters, vital signs, 12-lead ECG variables ([2]; in vivo): No clinically significant findings
- Death, Events [2, 9]: 0 Events
- Death, n (%) [2, 9]: 0 n (%)
- Death, Events [2, 10]: 0 Events
- Death, n (%) [2, 10]: 0 n (%)
- Death, Events [2, 11]: 0 Events
- Death, n (%) [2, 11]: 0 n (%)
- Death, Events [2, 12]: 0 Events
- Death, n (%) [2, 12]: 0 n (%)
- CL/F ([3]; healthy Asian participants, 24 mg verinurad + 300 mg allopurinol QD, Day 1, arithmetic mean (SD)): 48.6 (11.3) L/h
- Tmax ([3]; healthy Asian participants, 24 mg verinurad + 300 mg allopurinol QD, Day 1): 5.00 (4.98–6.02) h
- CL/F ([3]; healthy Asian participants, 24 mg verinurad + 300 mg allopurinol QD, Day 7, arithmetic mean (SD)): 50.9 (9.01) L/h
- Cmax [3, 13]: 73.6 (29.0) ng/mL
- Tmax [3, 13]: 5.00 (4.00–6.00) h
- CL/F [3, 14]: 47.9 (17.2) L/h
- t½λz [3, 14]: 6.27 (0.647) h
- CL/F [3, 15]: 43.4 (16.2) L/h
- t½λz [3, 15]: 12.9 (3.08) h
- Tmax ([3]; healthy Chinese participants, 12 mg verinurad + 300 mg allopurinol, Day 1): 5.00 (4.00–6.00) h
- half-life ([3]; human, plasma, oral, healthy Asian participants, 24 mg verinurad + 300 mg allopurinol QD, Day 1, arithmetic mean (SD), read-out: t½λz (converted)): 5.98 h
- AUC ([3]; human, plasma, oral, healthy Asian participants, 24 mg verinurad + 300 mg allopurinol QD, Day 1, read-out: AUC): 506 ng·h/mL
- AUC ([3]; human, plasma, oral, healthy Asian participants, 24 mg verinurad + 300 mg allopurinol QD, Day 1, read-out: AUCτ): 415 ng·h/mL
- Cmax ([3]; human, plasma, oral, healthy Asian participants, 24 mg verinurad + 300 mg allopurinol QD, Day 1, read-out: Cmax): 71.2 ng/mL
- AUC ([3]; human, plasma, oral, healthy Asian participants, 24 mg verinurad + 300 mg allopurinol QD, Day 7, read-out: AUCτ): 478 ng·h/mL
- AUC ([3]; human, plasma, oral, healthy Chinese participants, 12 mg verinurad + 300 mg allopurinol day 1 and QD days 3-9, Day 9, read-out: AUCτ): 264 ng·h/mL
- Cmax ([3]; human, plasma, oral, healthy Chinese participants, 12 mg verinurad + 300 mg allopurinol day 1 and QD days 3-9, Day 9, read-out: Cmax): 42 ng/mL
- Tmax ([3]; human, plasma, oral, healthy Chinese participants, 12 mg verinurad + 300 mg allopurinol day 1 and QD days 3-9, Day 9, read-out: tmax): 5.5 h
- AUC ([3]; human, plasma, oral, healthy Chinese participants, 12 mg verinurad + 300 mg allopurinol, Day 1, read-out: AUC): 295 ng·h/mL
- AUC ([3]; human, plasma, oral, healthy Chinese participants, 12 mg verinurad + 300 mg allopurinol, Day 1, read-out: AUCτ): 226 ng·h/mL
- Cmax ([3]; human, plasma, oral, healthy Chinese participants, 12 mg verinurad + 300 mg allopurinol, Day 1, read-out: Cmax): 47.6 ng/mL
- CL/F ([4]; multiple-dose assessment 12 mg verinurad QD, Day 1, geometric mean (gCV%)): 52.2 (20.2) L/h
- Tmax ([4]; multiple-dose assessment 12 mg verinurad QD, Day 1): 5.00 (2.00–6.00) h
- CL/F [4, 16]: 44.2 (27.3) L/h
- t½λz [4, 16]: 10.9 (19.1) h
- CL/F ([4]; single dose 4.5 mg verinurad, geometric mean (gCV%)): 51.8 (27.9) L/h
- Tmax ([4]; single dose 4.5 mg verinurad): 4.00 (2.00–6.00) h
- CL/F [4, 17]: 58.8 (40.5) L/h
- Cmax [4, 17]: 13.4 (67.6) ng/mL
- Tmax ([4]; single dose 6 mg verinurad): 4.00 (2.00–6.05) h
- CL/F [4, 18]: 58.3 (44.4) L/h
- t½λz [4, 18]: 12.2 (67.7) h
- Tmax ([4]; single dose 12 mg verinurad): 4.00 (2.00–6.00) h
- AUC ([4]; human, plasma, oral, 4.5 mg, single dose 4.5 mg verinurad, geometric mean (gCV%), read-out: AUC): 86.8 ng·h/mL
- AUC ([4]; human, plasma, oral, 4.5 mg, single dose 4.5 mg verinurad, geometric mean (gCV%), read-out: AUCτ): 68.1 ng·h/mL
- Cmax ([4]; human, plasma, oral, 4.5 mg, single dose 4.5 mg verinurad, geometric mean (gCV%), read-out: Cmax): 11.8 ng/mL
- AUC ([4]; human, plasma, oral, 6 mg, single dose 6 mg verinurad, geometric mean (gCV%), read-out: AUC): 102 ng·h/mL
- AUC ([4]; human, plasma, oral, 6 mg, single dose 6 mg verinurad, geometric mean (gCV%), read-out: AUCτ): 80.8 ng·h/mL
- AUC ([4]; human, plasma, oral, 12 mg, multiple-dose assessment 12 mg verinurad QD, Day 1, geometric mean (gCV%), read-out: AUC): 230 ng·h/mL
- AUC ([4]; human, plasma, oral, 12 mg, multiple-dose assessment 12 mg verinurad QD, Day 1, geometric mean (gCV%), read-out: AUCτ): 209 ng·h/mL
- Cmax ([4]; human, plasma, oral, 12 mg, multiple-dose assessment 12 mg verinurad QD, Day 1, geometric mean (gCV%), read-out: Cmax): 29.9 ng/mL
- AUC ([4]; human, plasma, oral, 12 mg, multiple-dose assessment 12 mg verinurad QD, Day 7, geometric mean (gCV%), read-out: AUCτ): 271 ng·h/mL
- Cmax ([4]; human, plasma, oral, 12 mg, multiple-dose assessment 12 mg verinurad QD, Day 7, geometric mean (gCV%), read-out: Cmax): 36.3 ng/mL
- AUC ([4]; human, plasma, oral, 12 mg, single dose 12 mg verinurad, geometric mean (gCV%), read-out: AUC): 206 ng·h/mL
- AUC ([4]; human, plasma, oral, 12 mg, single dose 12 mg verinurad, geometric mean (gCV%), read-out: AUCτ): 168 ng·h/mL
- Cmax ([4]; human, plasma, oral, 12 mg, single dose 12 mg verinurad, geometric mean (gCV%), read-out: Cmax): 28.6 ng/mL
- AUC ([4]; human, plasma, oral, 12 mg, single dose of verinurad 4.5, 6, or 12 mg, read-out: geometric mean AUCτ, range over doses): 68.1 to 168 ng·h/mL
- Cmax ([4]; human, plasma, oral, 12 mg, single dose of verinurad 4.5, 6, or 12 mg, read-out: geometric mean Cmax, range over doses): 11.8 to 28.6 ng/mL
- half-life ([4]; human, plasma, oral, multiple-dose assessment 12 mg verinurad QD, Day 1, geometric mean (gCV%)): 7.15 h
- Tmax ([4]; human, plasma, oral, multiple-dose assessment 12 mg verinurad QD, Day 7, read-out: tmax): 6 h
- half-life ([4]; human, plasma, oral, single dose 4.5 mg verinurad, geometric mean (gCV%)): 12.7 h
- half-life ([4]; human, plasma, oral, single dose 6 mg verinurad, geometric mean (gCV%)): 13.6 h
- tEmax,CB, mean (SD) ([5]; 12 mg verinurad QD, Day 1): 9.0 (1.0) hour
- tEmax,CB, mean (SD) ([5]; 12 mg verinurad QD, Day 7): 7.0 (3.0) hour
- mean Aeur at peak, higher compared with day –1 [5, 19]: 353%
- mean FEUA at peak [5, 19]: 33.3%
- mean Aeur at peak, higher compared with day –1 [5, 20]: 81.3%
- mean FEUA at peak [5, 20]: 31.2%
- tEmax,CB, mean (SD) ([5]; single dose 4.5 mg verinurad): 8.0 (2.1) hour
- mean Aeur at peak, higher compared with day –1 [5, 21]: 219%
- mean FEUA at peak [5, 21]: 21.5%
- tEmax,CB, mean (SD) ([5]; single dose 6 mg verinurad): 8.0 (2.0) hour
- mean Aeur at peak, higher compared with day –1 [5, 22]: 267%
- mean FEUA at peak [5, 22]: 24.8%
- tEmax,CB, mean (SD) ([5]; single dose 12 mg verinurad): 9.0 (1.5) hour
- mean Aeur at peak, higher compared with day –1 [5, 23]: 338%
- mean FEUA at peak [5, 23]: 33.3%
- AUC increase compared with normal renal function [6, 24]: 148%
- Cmax increase compared with normal renal function [6, 24]: 73%
- AUC increase compared with normal renal function [6, 25]: 130%
- Cmax increase compared with normal renal function [6, 25]: 128%
- AUC increase compared with normal renal function [6, 26]: 24%
- Cmax increase compared with normal renal function [6, 26]: 53%
- accumulation for AUC ([7]; after QD doses): 1.3 fold
- accumulation for Cmax ([7]; after QD doses): ~ 1.2 fold
- AUCτ [7, 27]: 239 ng·h/mL
- Cmax [7, 27]: 38.2 ng/mL
- verinurad exposure, higher than in Western patients [8]: > 2 fold

From paper PMC9121888 (Pharmacology Research & Perspectives, 2022)
